Assays:
Experiment in all cases: standard MIC test, synergist in combination with amoxycillin
Format in all cases: cell-based
Conditions in all cases: substance alone, unit assumed
E.coli JT39 = test system: E.coli JT39
Procedure: (§1) In a standard MIC test the compound of Example 2 was tested as a synergist in combination with amoxycillin: […]

Klebsiella Aerogenes E70 = test system: Klebsiella Aerogenes E70
Procedure: as §1

Staph Aureus Russell = test system: Staph Aureus Russell
Procedure: as §1

Row | MIC (E.coli JT39) [µg/mL] | MIC (Klebsiella Aerogenes E70) [µg/mL] | MIC (Staph Aureus Russell) [µg/mL] | SMILES
1 | 31 | 62 | 62 | COC(OC)OC/C=C1\O[C@@H]2CC(=O)N2[C@H]1C(=O)O [Ex. 2, Lithium 9-O-(dimethoxymethyl)clavulanate]
2 | 2000 | 500 | 500 | CC1(C)S[C@@H]2[C@H](NC(=O)[C@H](N)c3ccc(O)cc3)C(=O)N2[C@H]1C(=O)O [Amoxycillin]

From patent EP0080284A1, “Derivatives of clavulanic acid, processes for their preparation and their use” (BEECHAM GROUP PLC, priority 1981, dated 1983)
